Reference: US20130158267A1, “METHOD OF SYNTHESIZING THE COMPLEX [ZN(NNS)2] ACTIVE AGAINST THE MALARIA PARASITE PLASMODIUM” (priority 2010, published 2013)

System: chloroquine resistant strain (W2)
Assay: activity against chloroquine resistant strain of the malaria parasite
Type: cell-based, Plasmodium falciparum
Details: compared with control drug
Excerpt: 3-[1-(2-pyridyl)ethylidene]hydrazinecarbodithioate have moderate potency against falcipain-2 (FP-2) and falcipain-3 (FP-3) cysteine protease enzymes from the malaria parasite plasmodium falciparum while they portray enormous potency against the chloroquine resistant strain (W2) of the parasite. This patent describes the synthesis, characterization and biological results of metal complexes containing deprotonated 3-[1-(2-pyridyl) ethylidene] hydrazinecarbodithioate ligand (FIG. 1). The metal complex were synthesized and recrystallized. The biological activities (nanomolar) of the metal complex against malaria parasites were tested and tabled as table 2 in FIG. 6 of the drawings. The metal potency was far much greater than the control drug with respect to W-2 . This observation is extremely important as malaria resistance against the chloroquine drug is a great challenge today. This metal complex may act as lead compounds for developing future malaria drugs . […] The potency of cadmium is greatest with respect to W-2 compared to other metals as well as the control drug. The metal complex ZnL(LH)Cl containing the deprotonated dithioester L- have been synthesized and charachterized by elemental analysis, mass spectrometry, proton NMR and Fourier transform IR. The ligand LH undergoes tautomerism which can readily get ionized to generate a deprotonated ligand L-. […]

[Cd] [cadmium]
potency against W-2 in words / activity sequence versus control: greatest
